{
  "source": "patent US20200345725A1",
  "about": "“Methods and Compositions for Treating Cancer” (Omeros Corporation, priority 2019, published 2020)",
  "format_in_all_cases": "cell-based",
  "key": {"[1]": {"tested_on": "human PBMCs", "experiment": "Th1 cytokines in supernatants of stimulated human PBMC, GPR174 inhibitor with adenosine pathway inhibitors (Examples 15, 18-22)", "conditions": "for IFN-γ, ratio relative to vehicle control (MRS) / IL-2, ratio relative to vehicle control (MRS column) / TNF, ratio relative to vehicle control (MRS column): MRS-1754 1 μM added to the agent(s) of the label, label MRS = MRS alone; for IFN-γ, ratio relative to vehicle control (Veh column) / IL-2, ratio relative to vehicle control (Veh column) / TNF, ratio relative to vehicle control (Veh column): donor 6, no MRS, Cmpd 10 1, ZM 0.1, PBF 0.1, SCH 0.2 μM, ADA 0.75 μg/mL", "outline": "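Human donor PBMCs (1×10^6 cells/well) were stimulated with 1 µg/mL anti-CD3 (UCHT1) plus 0.1 µg/mL anti-CD28 (CD28.2) for 24 h with test agents. IFN-γ, IL-2, TNF and GM-CSF in supernatants were measured by ELISA, Legendplex or MSD. Fold changes were compared by one-way ANOVA with Tukey correction.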"}, "[2]": {"tested_on": "co-cultured mouse C57BL/6+DBA1 splenocytes", "experiment": "Cytokines in C57BL/6 + DBA1 splenocyte co-culture", "conditions": "30 μM; day 6 after mixing", "protocol": "In order to stimulate T cells in mice, splenocytes obtained from two different mouse strains, C57BL/6 and DBA1, were mixed in culture.\nThe effect of compound 10 on production of cytokines (IFN-γ, IL-5, TNF-α, IL-2, IL-6, IL-4, IL-10, IL-9, IL17A, IL17F, IL-21, IL-22 and IL-13) in mouse splenocyte co-cultures was determined as follows. Splenocytes obtained from two different mouse strains, C57BL/6 and DBA1, were mixed in culture in the presence or absence of 30 μM compound 10. Cytokine production of IFN-γ, IL-5, TNF-α, IL-2, IL-6, IL-4, IL-10, IL-9, IL-17A, IL-17F, IL-21, IL-22 and IL-13 was measured in the co-culture supernatant at day 4 and day 6 after mixing. Cytokine levels were determined by LEGENDplex™ bead-based immunoassays from BioLegend (San Diego, Calif.) according to the manufacturer's instructions."}, "[3]": {"molecular_target": "GPR174 (Homo sapiens, UniProt Q9BXC1)", "sequence (Q9BXC1 whole entry)": "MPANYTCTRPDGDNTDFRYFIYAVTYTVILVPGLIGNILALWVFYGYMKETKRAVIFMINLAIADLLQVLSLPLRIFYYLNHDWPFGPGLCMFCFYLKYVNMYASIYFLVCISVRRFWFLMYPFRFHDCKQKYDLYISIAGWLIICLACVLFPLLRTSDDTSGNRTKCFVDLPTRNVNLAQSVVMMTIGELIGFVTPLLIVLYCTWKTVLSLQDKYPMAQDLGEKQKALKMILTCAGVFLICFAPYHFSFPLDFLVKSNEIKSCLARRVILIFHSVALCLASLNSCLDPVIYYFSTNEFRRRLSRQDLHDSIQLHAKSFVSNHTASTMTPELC", "experiment": "CRE-Luc reporter Gs signaling assay with GPR174", "design": "host or cells: HEK293 or CHO cell lines (ATCC)"}, "[4]": {"conditions": "donor 3, PBF-509 0.2 μM, alone (label PBF) or with Cmpd 10 1 μM (label Cmpd 10)"}, "[5]": {"conditions": "donor 3, PBF-509 0.2 μM, alone (label PBF) or with Cmpd 10 1 μM (label Cmpd 10), listed as Cmpd 10"}, "[6]": {"conditions": "donor 3, ZM-241385 0.2 μM, alone (label ZM) or with Cmpd 10 1 μM (label Cmpd 10)"}, "[7]": {"conditions": "donor 3, ZM-241385 0.2 μM, alone (label ZM) or with Cmpd 10 1 μM (label Cmpd 10), listed as Cmpd 10"}, "[8]": {"conditions": "donor 7, high and low concentrations, ZM 0.1 μM"}, "[9]": {"conditions": "donor 7, no ZM, 0.3 μM (compound 20: 3 μM)"}, "[10]": {"conditions": "donor 7, no ZM, 1 μM (compound 20: 10 μM)"}, "[11]": {"conditions": "donor 7, with ZM-241385 0.1 μM, 0.3 μM (compound 20: 3 μM)"}, "[12]": {"conditions": "donor 7, with ZM-241385 0.1 μM, 1 μM (compound 20: 10 μM), label ZM = ZM alone"}},
  "note": "Several values for one entry are separate records, joined by “and”; a condition that tells them apart may be missing. Equal values may be shown once. Marks after values point to notes of the source that are not given here.",
  "data": [
    {"compound": "CC1CCN(c2cc(N3CCN(S(=O)(=O)c4ccccc4)CC3)c([N+](=O)[O-])cc2F)CC1", "note": "[compound 10]", "values": [
      {"measurement": "TNF fold-change relative to vehicle control", "setting": "[1]; donor 3, Cmpd 10 1 μM alone, listed as Cmpd 10", "result": "1.5* fold"},
      {"measurement": "IFN-γ, ratio relative to vehicle control (MRS)", "setting": "[1]; donor 3", "result": "2.2* fold"},
      {"measurement": "IL-2, ratio relative to vehicle control (MRS column)", "setting": "[1]; donor 3", "result": 4.3, "unit": "fold"},
      {"measurement": "TNF, ratio relative to vehicle control (MRS column)", "setting": "[1]; donor 3", "result": "4.6* fold"},
      {"measurement": "IL-2, ratio relative to vehicle control (MRS column)", "setting": "[1]; donor 3, listed as Cmpd 10", "result": "4.3* fold"},
      {"measurement": "IFN-γ fold-change relative to vehicle control", "setting": "[1]; [4]", "result": 1.8, "unit": "fold"},
      {"measurement": "IL-2 fold-change relative to vehicle control", "setting": "[1]; [4]", "result": 1.6, "unit": "fold"},
      {"measurement": "TNF fold-change relative to vehicle control", "setting": "[1]; [4]", "result": 2.9, "unit": "fold"},
      {"measurement": "IFN-γ fold-change relative to vehicle control", "setting": "[1]; [5]", "result": "1.8* fold"},
      {"measurement": "IL-2 fold-change relative to vehicle control", "setting": "[1]; [5]", "result": "1.6* fold"},
      {"measurement": "TNF fold-change relative to vehicle control", "setting": "[1]; [5]", "result": "2.9* fold"},
      {"measurement": "IFN-γ fold-change relative to vehicle control", "setting": "[1]; [6]", "result": 2.5, "unit": "fold"},
      {"measurement": "IL-2 fold-change relative to vehicle control", "setting": "[1]; [6]", "result": 2.3, "unit": "fold"},
      {"measurement": "TNF fold-change relative to vehicle control", "setting": "[1]; [6]", "result": 4.6, "unit": "fold"},
      {"measurement": "IFN-γ fold-change relative to vehicle control", "setting": "[1]; [7]", "result": "2.5* fold"},
      {"measurement": "IL-2 fold-change relative to vehicle control", "setting": "[1]; [7]", "result": "2.3* fold"},
      {"measurement": "TNF fold-change relative to vehicle control", "setting": "[1]; [7]", "result": "4.6* fold"},
      {"measurement": "IFN-γ, MRS/Veh: ratio in the presence vs. the absence of MRS-1754", "setting": "[1]; donor 6", "result": 1.1},
      {"measurement": "IL-2, MRS/Veh: ratio in the presence vs. the absence of MRS-1754", "setting": "[1]; donor 6", "result": "1.4*"},
      {"measurement": "TNF, MRS/Veh: ratio in the presence vs. the absence of MRS-1754", "setting": "[1]; donor 6", "result": "1.4*"},
      {"measurement": "IFN-γ, ratio relative to vehicle control (Veh column)", "setting": "[1]", "result": "did not significantly increase"},
      {"measurement": "IL-2, ratio relative to vehicle control (Veh column)", "setting": "[1]", "result": 1.7, "unit": "fold"},
      {"measurement": "TNF, ratio relative to vehicle control (Veh column)", "setting": "[1]", "result": 1.4, "unit": "fold"},
      {"measurement": "IFN-γ, ratio relative to vehicle control (Veh column)", "setting": "[1]; listed as Cmpd 10", "result": 1.2, "unit": "fold"},
      {"measurement": "IL-2, ratio relative to vehicle control (Veh column)", "setting": "[1]; listed as Cmpd 10", "result": "1.7* fold"},
      {"measurement": "TNF, ratio relative to vehicle control (Veh column)", "setting": "[1]; listed as Cmpd 10", "result": "1.4* fold"},
      {"measurement": "IFN-γ, ratio relative to vehicle control (MRS)", "setting": "[1]; donor 6", "result": "1.3* fold"},
      {"measurement": "IL-2, ratio relative to vehicle control (MRS column)", "setting": "[1]; donor 6", "result": 1.4, "unit": "fold"},
      {"measurement": "TNF, ratio relative to vehicle control (MRS column)", "setting": "[1]; donor 6", "result": 2.1, "unit": "fold"},
      {"measurement": "IL-2, ratio relative to vehicle control (MRS column)", "setting": "[1]; donor 6, listed as Cmpd 10", "result": "2.3* fold"},
      {"measurement": "TNF, ratio relative to vehicle control (MRS column)", "setting": "[1]; donor 6, listed as Cmpd 10", "result": "2.1* fold"},
      {"measurement": "synergy with ZM on GM-CSF (greater than the sum of the increases with each inhibitor alone)", "setting": "[1]; [8]", "result": "synergized with ZM"},
      {"measurement": "synergy with ZM on IFN-γ (greater than the sum of the increases with each inhibitor alone)", "setting": "[1]; [8]", "result": "synergized with ZM"},
      {"measurement": "synergy with ZM on IL-2 (greater than the sum of the increases with each inhibitor alone)", "setting": "[1]; [8]", "result": "synergized with ZM"},
      {"measurement": "synergy with ZM on TNF (greater than the sum of the increases with each inhibitor alone)", "setting": "[1]; [8]", "result": "synergized with ZM"},
      {"measurement": "GM-CSF, ratio relative to vehicle control", "setting": "[1]; [9]", "result": "3.6*"},
      {"measurement": "IFN-γ, ratio relative to vehicle control", "setting": "[1]; [9]", "result": "2.1*"},
      {"measurement": "IL-2, ratio relative to vehicle control", "setting": "[1]; [9]", "result": "1.7*"},
      {"measurement": "TNF, ratio relative to vehicle control", "setting": "[1]; [9]", "result": "2.2*"},
      {"measurement": "GM-CSF, ratio relative to vehicle control", "setting": "[1]; [10]", "result": "3.1*"},
      {"measurement": "IFN-γ, ratio relative to vehicle control", "setting": "[1]; [10]", "result": "2.2*"},
      {"measurement": "IL-2, ratio relative to vehicle control", "setting": "[1]; [10]", "result": "1.6*"},
      {"measurement": "TNF, ratio relative to vehicle control", "setting": "[1]; [10]", "result": "2.2*"},
      {"measurement": "GM-CSF, ratio relative to vehicle control", "setting": "[1]; [11]", "result": "6.2*"},
      {"measurement": "IFN-γ, ratio relative to vehicle control", "setting": "[1]; [11]", "result": "3.7*"},
      {"measurement": "IL-2, ratio relative to vehicle control", "setting": "[1]; [11]", "result": "2.0*"},
      {"measurement": "TNF, ratio relative to vehicle control", "setting": "[1]; [11]", "result": "3.6*"},
      {"measurement": "GM-CSF, ratio relative to vehicle control", "setting": "[1]; [12]", "result": "5.9*"},
      {"measurement": "IFN-γ, ratio relative to vehicle control", "setting": "[1]; [12]", "result": "3.7*"},
      {"measurement": "IL-2, ratio relative to vehicle control", "setting": "[1]; [12]", "result": "2.2*"},
      {"measurement": "TNF, ratio relative to vehicle control", "setting": "[1]; [12]", "result": "3.8*"},
      {"measurement": "quantities of cytokines produced during splenocyte allogeneic stimulation", "setting": "[2]", "result": "strong alteration"},
      {"measurement": "Gs pathway in the presence of GPR174 (CRE-Luc reporter)", "setting": "[3]; increasing concentrations of compound", "result": "inhibited"},
      {"measurement": "Fold decrease in Gs signaling activity", "setting": "[3]; pCRE-Luc reporter", "result": 5.1, "unit": "fold"},
      {"measurement": "EC50", "setting": "[3]; pCRE-Luc reporter, multiple values = separate experiments", "result": "200 nM and 500 nM"}
    ]}
  ]
}
